In brackets after ≈: the same amount, converted by molar mass. Where two headings read alike, the source gives them in different places.
Key:
topo IV from E. coli = molecular target: T1, topo IV from E. coli (Escherichia coli, UniProt P20083); experiment: relaxation HTS plate assay; assay type: biochemical
T1 construct: purchased Inspiralis
Experimental: (§1) All compounds were tested for their inhibitory activities against DNA gyrase and topo IV from E. coli in supercoiling and relaxation high-throughput plate assays, respectively. Our new series of inhibitors were then tested against a panel of Gram-positive and Gram-negative bacteria.
(§2) Seven concentrations of the inhibitors were used to determine IC50 values which were then calculated with GraphPad Prism 6.0 software. Three independent measurements were performed to determine IC50 values, and mean values are reported as the final result.

[1] = system: Enterococcus faecalis ATCC 29212; experiment: MIC broth microdilution (CLSI); assay type: cell-based, E. faecalis; settings: Enterococcus faecalis, ATCC29212; read-out: MIC
Experimental: (§3) MICs (Tables 1 and S1–S3) were determined with a standard serial broth microdilution technique according to Clinical and Laboratory Standards Institute (CLSI) guidelines.[45] Cation-adjusted Mueller Hinton broth 2 (MHBII) was used for bacterial growth under standard laboratory conditions and for antimicrobial susceptibility tests. MHBII broth was prepared by dissolving 22 g of MHBII powder [containing beef extract (3 g), acid hydrolysate of casein (17.5 g), and starch (1.5 g); Becton Dickinson and Co.] in 1 L of water. To prepare MHBII agar, 14 g of agar (Bacto; Molar Chemicals) was added to 1 L of broth.
(§4) Bacterial strains were inoculated onto MHBII agar plates and grown overnight at 37 °C. Next, three individual colonies from each strain were inoculated into 1 mL of MHBII medium and propagated at 37 °C overnight, with agitation at 250 rpm. For Enterococcus sp., the cells were plated in brain–heart infusion [(BHI) medium] agar plates, and BHI broth was used to determine the MICs. […] The highest final DMSO concentration in the experiments was 0.64% (in the case of the 64 μg/mL concentration of the inhibitor). Following the dilutions, each well was seeded with 5 × 10^4 bacterial cells (in 100 μL final volume). Each measurement was performed in three parallel replicates, and to avoid possible edge effects in the microwell plates, the outside rows (A, H) were filled with sterile medium. Following the inoculations, the plates were covered with the lids and wrapped in polyethylene plastic bags, to minimize evaporation but to allow O2 transfer. The plates were incubated at 37 °C under continuous shaking at 150 rpm for 18 h. After incubation, the OD600 of each well was measured using a microplate reader (Synergy 2; Biotek). The MICs were defined as the antibiotic concentrations which inhibited the growth of the bacterial cultures; that is, the drug concentration where the average OD600 increment of the three technical replicates was below 1.5-fold the background OD increment.

A. baumannii ATCC 17978 = experiment: MIC broth microdilution (CLSI); assay type: cell-based; settings: Acinetobacter baumannii, ATCC17978
Experimental: as §3, with “Cation-adjusted” for “MICs (Tables 1 and S1–S3) were determined with a standard serial broth microdilution technique according to Clinical and Laboratory Standards Institute (CLSI) guidelines.[45] Cation-adjusted”
(§5) Bacterial strains were inoculated onto MHBII agar plates and grown overnight at 37 °C. Next, three individual colonies from each strain were inoculated into 1 mL of MHBII medium and propagated at 37 °C overnight, with agitation at 250 rpm. For Enterococcus sp., the cells were plated in brain–heart infusion [(BHI) medium] agar plates, and BHI broth was used to determine the MICs. […] Following the dilutions, each well was seeded with 5 × 10^4 bacterial cells (in 100 μL final volume). Each measurement was performed in three parallel replicates, and to avoid possible edge effects in the microwell plates, the outside rows (A, H) were filled with sterile medium. Following the inoculations, the plates were covered with the lids and wrapped in polyethylene plastic bags, to minimize evaporation but to allow O2 transfer. […] After incubation, the OD600 of each well was measured using a microplate reader (Synergy 2; Biotek).

S. aureus ATCC 29213 = experiment: MIC broth microdilution (CLSI); assay type: cell-based; settings: Staphylococcus aureus, ATCC29213
Experimental: as §3, with “Cation-adjusted” for “MICs (Tables 1 and S1–S3) were determined with a standard serial broth microdilution technique according to Clinical and Laboratory Standards Institute (CLSI) guidelines.[45] Cation-adjusted”
as §5

E. coli ATCC 25922 = experiment: MIC broth microdilution (CLSI); assay type: cell-based; settings: Escherichia coli, ATCC25922; read-out: MIC
Experimental: as §3, §4

[2] = system: S. aureus (MRSA) ATCC 43300; experiment: MIC broth microdilution (CLSI); assay type: cell-based; settings: Staphylococcus aureus
Experimental: as §3, §4

[3] = system: S. aureus (VISA) ATCC 700699; experiment: MIC broth microdilution (CLSI); assay type: cell-based; settings: Staphylococcus aureus; read-out: MIC
Experimental: as §3, §4

K. pneumoniae ATCC 10031 = experiment: MIC broth microdilution (CLSI); assay type: cell-based
Experimental: as §3, §4

[4] = system: Enterobacter cloacae spp. cloacae ATCC 13047; experiment: MIC broth microdilution (CLSI); assay type: cell-based; settings: Enterobacter cloacae, ATCC13047; read-out: MIC
Experimental: as §3, §4

E. faecium ATCC 700221 = experiment: MIC broth microdilution (CLSI); assay type: cell-based
Experimental: as §3, §4

P. aeruginosa ATCC 27853 = experiment: MIC broth microdilution (CLSI); assay type: cell-based; settings: Pseudomonas aeruginosa, ATCC27853; read-out: MIC
Experimental: as §3, §4

DNA gyrase from E. coli = molecular target: T2, DNA gyrase from E. coli (Escherichia coli, UniProt P0AES6); experiment: supercoiling HTS plate assay; assay type: biochemical; settings: IC50 [nM] E. coli DNA gyrase
T2 construct: purchased Inspiralis
Experimental: as §1, §2

physchem = assay type: physicochemical; settings: phosphate-buffered saline (PBS)
Experimental: For the PBS, 2.38 g of disodium hydrogen phosphate dodecahydrate, 0.19 g of potassium dihydrogen phosphate, and 8.0 g of sodium chloride were added to distilled water (900 mL), and the solution was mixed overnight. […] Samples were prepared by weighing the exact mass of solid compounds (about 1 mg), and then, the appropriate volume of PBS was added to reach the final concentration of ∼1 mg/mL. […] The supernatant was diluted 3× with a 1:1 mixture of 0.1% TFA in water and acetonitrile and analyzed by HPLC. For the 7-point calibration curves, concentrated stock solutions of the compounds were prepared at concentrations of 10 and 0.5 mM in DMSO, which were diluted with a 1:1 mixture of 0.1% TFA in water and acetonitrile to the desired final concentrations and analyzed by HPLC. Results are given in μM as an average value of two independent experiments. For details on calibration curves, concentrations, analytical method, and HPLC method, see the Supporting Information.
Thermodynamic solubility assay
To determine thermodynamic solubility of compounds in PBS, calibration curves for the assayed compounds were prepared using seven concentrations. First, DMSO stock solutions of compounds at 10 mM and 0.5 mM concentration were prepared and then diluted (0.1% TFA in […]
Quality control (QC) samples were diluted from stock solutions with a 1:1 mixture of 0.1% TFA in water and acetonitrile to final concentrations of 60 µM, 20 µM, and 2 µM (6 µM, 2 µM, and 0.2 µM for 7f or 0.6 µM, 0.2 µM, and 0.02 µM for 7g).
Analytical reversed-phase UHPLC analyses were performed on Thermo Scientific Dionex UltiMate 3000 modular system (Thermo Fisher Scientific Inc., MA, USA). Waters Acquity UPLC® HSS C18 SB column (2.1 × 50 mm, 1.8 μm; Waters, Milford, MA, USA) was used at T […]
Mobile phase consisted of 0.1% trifluoroacetic acid in ultrapure water (solvent A) and acetonitrile […]
The obtained data was processed in Chromeleon CDS software (Thermo Fisher Scientific Inc., […]
Analytical method was tested for accuracy, precision and linear rang. Accuracy was […]
(or 2 or 0.2) µM and 60 (or 6 or 0.6) µM) to their true values and expressed in (%). Values were […]
Method repeatability was determined by calculating the RSD from the separately prepared and analysed quality control samples (n = 3). […] Linearity of the […]
method (1 (or 0.1 or 0.01) µM to 100 (or 10 or 1) µM) was evaluated from the 7-point calibration […]
Solubility was determined in two independent experiments and results were calculated in […]

[5] = read-out: IC50 [nM] E. coli TopoIV
[6] = read-out: MIC [µg/mL] (A. baumannii ATCC 17978)
[7] = read-out: MIC [µg/mL](S. aureus ATCC 29213)
[8] = read-out: MIC [µg/mL](S. aureus MRSA ATCC4330)
[9] = Klebsiella pneumoniae, ATCC10031, read-out: MIC
[10] = Enterococcus faecium, ATCC700221, read-out: MIC

T1 sequence (P0AFI2 whole entry): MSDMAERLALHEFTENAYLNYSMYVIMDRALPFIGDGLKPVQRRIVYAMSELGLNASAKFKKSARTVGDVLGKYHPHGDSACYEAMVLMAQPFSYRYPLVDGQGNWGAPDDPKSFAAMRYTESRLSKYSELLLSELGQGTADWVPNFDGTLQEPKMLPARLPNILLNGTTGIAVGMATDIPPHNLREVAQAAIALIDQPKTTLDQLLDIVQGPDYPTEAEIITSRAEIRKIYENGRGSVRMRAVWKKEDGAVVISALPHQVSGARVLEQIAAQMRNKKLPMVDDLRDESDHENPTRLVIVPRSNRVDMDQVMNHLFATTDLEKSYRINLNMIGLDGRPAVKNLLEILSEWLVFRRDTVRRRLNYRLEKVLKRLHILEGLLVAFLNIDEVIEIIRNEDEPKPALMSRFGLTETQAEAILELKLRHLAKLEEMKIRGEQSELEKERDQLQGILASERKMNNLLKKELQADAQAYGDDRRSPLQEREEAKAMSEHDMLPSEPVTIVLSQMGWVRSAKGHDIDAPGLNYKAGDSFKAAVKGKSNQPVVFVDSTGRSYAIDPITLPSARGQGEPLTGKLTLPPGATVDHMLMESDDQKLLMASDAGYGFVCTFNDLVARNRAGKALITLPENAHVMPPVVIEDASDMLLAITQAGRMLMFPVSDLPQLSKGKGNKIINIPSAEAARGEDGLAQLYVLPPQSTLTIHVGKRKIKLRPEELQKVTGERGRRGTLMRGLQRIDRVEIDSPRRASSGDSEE
T1 sequence (P20083 whole entry): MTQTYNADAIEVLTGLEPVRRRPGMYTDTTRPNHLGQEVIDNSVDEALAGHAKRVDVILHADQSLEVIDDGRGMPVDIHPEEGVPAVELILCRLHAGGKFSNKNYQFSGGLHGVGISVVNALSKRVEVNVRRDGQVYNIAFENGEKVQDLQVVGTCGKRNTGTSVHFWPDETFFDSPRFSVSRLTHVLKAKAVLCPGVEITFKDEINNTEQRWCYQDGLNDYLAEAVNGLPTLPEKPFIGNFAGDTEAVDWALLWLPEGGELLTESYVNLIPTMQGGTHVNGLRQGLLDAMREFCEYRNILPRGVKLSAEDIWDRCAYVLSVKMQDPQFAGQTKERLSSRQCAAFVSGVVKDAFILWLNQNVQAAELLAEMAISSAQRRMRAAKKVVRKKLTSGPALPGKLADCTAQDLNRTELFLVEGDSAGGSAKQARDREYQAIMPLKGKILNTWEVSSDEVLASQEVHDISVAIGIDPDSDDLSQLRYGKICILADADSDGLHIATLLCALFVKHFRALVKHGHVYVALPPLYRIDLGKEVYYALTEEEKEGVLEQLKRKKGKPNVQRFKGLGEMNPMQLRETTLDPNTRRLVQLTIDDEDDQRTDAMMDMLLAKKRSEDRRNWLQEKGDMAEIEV

Row | SMILES | IC50 (topo IV from E. coli; [5]) [nM] | MIC [1] [µg/mL] | MIC (A. baumannii ATCC 17978; read-out: MIC) [µg/mL] | MIC (A. baumannii ATCC 17978; [6]) [µg/mL] | MIC (S. aureus ATCC 29213; read-out: MIC) [µg/mL] | MIC (S. aureus ATCC 29213; [7]) [µg/mL] | MIC (E. coli ATCC 25922) [µg/mL] | MIC ([2]; read-out: MIC) [µg/mL] | MIC [2, 8] [µg/mL] | MIC [3] [µg/mL] | MIC (K. pneumoniae ATCC 10031; [9]) [µg/mL] | MIC [4] [µg/mL] | MIC (E. faecium ATCC 700221; [10]) [µg/mL] | MIC (P. aeruginosa ATCC 27853) [µg/mL] | IC50 (DNA gyrase from E. coli) [nM] | IC50 (topo IV from E. coli; IC50) [nM] | IC50 (topo IV from E. coli; IC50 [nM] E. coli TopoIV) [nM] | also measured
1 | Cc1[nH]c(C(=O)Nc2nc3c(N4CCCC4)cc(C(=O)O)cc3s2)c(Cl)c1Cl [7j, 2-(3,4-Dichloro-5-methyl-1H-pyrrole-2-carboxamido)-4-(pyrrolidin-1-yl)benzo[d]thiazole-6-carboxylic Acid] | 68 ± 16 | 0.125 | 4 | 4 | 0.25 | 0.25 | 16 | 0.125 | 0.125 | 0.0625 | 8 | > 32 | 0.25 | 4 | < 10 |  |  | IC50 (topo IV from E. coli; read-out: IC50): < 100 nM
2 | Cc1[nH]c(C(=O)Nc2nc3c(N4CCOC4=O)cc(C(=O)O)cc3s2)c(Cl)c1Cl [7m, 2-(3,4-Dichloro-5-methyl-1H-pyrrole-2-carboxamido)-4-(2-oxooxazolidin-3-yl)benzo[d]thiazole-6-carboxylic Acid] | 180 ± 16 | 4 | > 64 | > 64 | 64 | 64 | > 64 | 64 | 64 | 8 | 32 | > 64 | 4 | > 64 | < 10 |  |  | MIC (E. faecium ATCC 700221): 4 µg/mL
3 | Cc1[nH]c(C(=O)Nc2nc3c(N4CCC5(CC4)OCCO5)cc(C(=O)O)cc3s2)c(Cl)c1Cl [7r, 2-(3,4-Dichloro-5-methyl-1H-pyrrole-2-carboxamido)-4-(1,4-dioxa-8-azaspiro[4.5]decan-8-yl)benzo[d]thiazole-6-carboxylic Acid] |  | < 0.0312 | 8 | 8 | < 0.0312 | < 0.0312 | 4 | < 0.0312 | < 0.0312 | < 0.0312 | 2 | 32 | < 0.0312 | 8 | 17 ± 11 |  |  | solubility thermodynamic at 24 h (physchem; pH 7.4, PBS pH 7.4, read-out: thermodynamic solubility, Experiment 1): 26.7 µM (≈ 13.7 µg/mL); solubility thermodynamic at 24 h (physchem; pH 7.4, PBS pH 7.4, read-out: thermodynamic solubility, Experiment 2): 27.3 µM (≈ 13.9 µg/mL); solubility thermodynamic at 24 h (physchem; pH 7.4, thermodynamic solubility (pH = 7.4), PBS, 37 °C, 24 h, mean of two): 27 µM (≈ 13.8 µg/mL)
4 | Cc1[nH]c(C(=O)Nc2nc3c(N4CC[S+]([O-])CC4)cc(C(=O)O)cc3s2)c(Cl)c1Cl [7s, 2-(3,4-Dichloro-5-methyl-1H-pyrrole-2-carboxamido)-4-(1-oxidothiomorpholino)benzo[d]thiazole-6-carboxylic Acid] |  | 16 | > 64 | > 64 | > 64 | > 64 | > 64 | 64 | 64 | > 64 | 32 | > 64 | 16 | > 64 | < 10 | < 100 | 72 ± 3 | 
5 | Cc1[nH]c(C(=O)Nc2nc3c(N4CC[C@H](N)C4)cc(C(=O)O)cc3s2)c(Cl)c1Cl.Cl [8a, (S)-1-(6-Carboxy-2-(3,4-dichloro-5-methyl-1H-pyrrole-2-carboxamido)benzo[d]thiazol-4-yl)pyrrolidin-3-aminium Chloride] |  | 32 | > 32 | > 32 | 32 | 32 | > 32 | 16 | 16 | 8 | 4 | > 32 | 32 | > 32 | < 10 | < 100 | 38 ± 10 | MIC (K. pneumoniae ATCC 10031): 4 µg/mL
